From patent US20120260922A1, “TOPICAL USE OF HYDROXYTYROSOL AND DERIVATIVES FOR THE PREVENTION OF HIV INFECTION” (priority 2009, published 2012)

Assays:
HIV-integrase = HIV-integrase (Human immunodeficiency virus type 1 group M subtype B, UniProt P04585); conditions: Huang et al. 2007; cited from earlier work
[1] = test system: X4-tropic virus (NL.4.3 Ren); experiment: Antiviral activity in PBMC's, X4-tropic virus; format: cell-based, HIV-1; conditions: PBMC's activated with PHA+IL-2; compared with MT-2
Method: Similar assays were carried out using peripheral blood mononuclear cells (PBMC's) for healthy donors, prior activation with PHA+IL-2 during 48 hours and maintaining with IL-2 for at least another 48 hours. In this case the number of cells per well was 250.000. In addition, infection with HIV virus with R5-tropism (JR-Ren) was also included in the assays.

[2] = test system: raltegravir resistant HIV virus (mutation 148); experiment: Antiviral activity against raltegravir resistant viruses; format: cell-based; conditions: viruses resistant to raltegravir
[3] = test system: recombinant virus NL4.3-delta-env-VSV-Luc (HIV VSV pseudotyped virus); format: cell-based, HIV-1
MT-2 cells = experiment: Viability assay on non-infected MT-2 cells; conditions: 48 hour
[4] = Vaginal tolerance in rabbits after repeated topical administration; format: in vivo; conditions: rabbit, once daily 7 days, solution 90 and 397 mg/L
Method: To determine the safety of hydroxytyrosol, a study of vaginal tolerance in rabbits after repeated once daily administration during 7 days was performed. Hydroxytyrosol was applied as a solution.

OCCc1ccc(O)c(O)c1 [Hydroxytyrosol, 4-(2-hydroxyethyl)-1,2-benzenediol]
effect on in vitro HIV-integrase activity (HIV-integrase): dose-dependent inhibitory effect | IC50 value for infection with X4-tropic [1]: higher than in the assays with cell line MT-2 | activity against integrase resistant viruses [2]: lack of cross resistance | activity against integrase resistant viruses ([2]; listed as hydroxytyrosol): mantained its activity | inhibition of VSV pseudotyped viruses [3]: inhibits VSV pseudotyped viruses | toxicity / cell viability (MT-2 cells): not due to toxicity | mean irritation value (MIV) [4]: 0.00 | morphological alterations in the vagina [4]: no morphological alterations
